Reference: patent US12077503B2, “Substituted cyclic amides and their use as herbicides” (FMC CORPORATION, priority 2015, dated 2024)

Assays:
Type in all cases: in vivo
Kochia (Kochia scoparia) [1] = assay: Test A preemergence; settings: for Plant response rating, Kochia: 125 g ai/ha, preemergence, 0 to 100 scale (0 no effect, 100 complete control); for Kochia plant response rating (0 to 100 scale, 0 is no effect, 100 is complete control): Preemergence, 500 g ai/ha, visual injury approx. 10 d
Procedure, shortened: (§1)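 Preemergence directed soil spray on seeded pots, or postemergence application to plants 2–10 cm, one- to two-leaf. Solvent mixture non-phytotoxic, with surfactant. Scored ~10 d later, visually, 0–100 vs untreated.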

[2] = system: barnyardgrass (Echinochloa crus-galli); assay: Test A preemergence; settings: for Plant response rating, Barnyardgrass: 125 g ai/ha, preemergence, 0 to 100 scale (0 no effect, 100 complete control); for Barnyardgrass plant response rating (0 to 100 scale, 0 is no effect, 100 is complete control): Preemergence, 500 g ai/ha, visual injury approx. 10 d
Procedure, shortened: as §1

[3] = system: giant foxtail (Setaria faberii); assay: Test A preemergence; settings: for Plant response rating, Foxtail, Giant: 125 g ai/ha, preemergence, 0 to 100 scale (0 no effect, 100 complete control); for Foxtail, Giant plant response rating (0 to 100 scale, 0 is no effect, 100 is complete control): Preemergence, 500 g ai/ha, visual injury approx. 10 d
Procedure, shortened: as §1

[4] = system: pigweed (Amaranthus retroflexus); assay: Test A preemergence; settings: for Plant response rating, Pigweed: 125 g ai/ha, preemergence, 0 to 100 scale (0 no effect, 100 complete control); for Pigweed plant response rating (0 to 100 scale, 0 is no effect, 100 is complete control): Preemergence, 500 g ai/ha, visual injury approx. 10 d
[5] = system: ragweed (common ragweed, Ambrosia elatior); assay: Test A preemergence; settings: for Plant response rating, Ragweed: 125 g ai/ha, preemergence, 0 to 100 scale (0 no effect, 100 complete control); for Ragweed plant response rating (0 to 100 scale, 0 is no effect, 100 is complete control): Preemergence, 500 g ai/ha, visual injury approx. 10 d
Procedure, shortened: as §1

[6] = system: ryegrass, Italian (Italian ryegrass, Lolium multiflorum); assay: Test A preemergence; settings: for Plant response rating, Ryegrass, Italian: 125 g ai/ha, preemergence, 0 to 100 scale (0 no effect, 100 complete control); for Ryegrass, Italian plant response rating (0 to 100 scale, 0 is no effect, 100 is complete control): Preemergence, 500 g ai/ha, visual injury approx. 10 d
Procedure, shortened: as §1

[7] = system: Galium (catchweed bedstraw, Galium aparine); assay: Test A postemergence; settings: postemergence; for Galium plant response rating: 125 g ai/ha, visual injury rating on 0 to 100 scale (0 no effect, 100 complete control), approx. 10 d; for Plant response rating, Galium: 500 g ai/ha, 0 to 100 scale, 0 no effect, 100 complete control
Procedure, shortened: as §1

Kochia (Kochia scoparia) [8] = assay: Test A postemergence; settings: postemergence; for Kochia plant response rating: 125 g ai/ha, visual injury rating on 0 to 100 scale (0 no effect, 100 complete control), approx. 10 d; for Plant response rating, Kochia: 500 g ai/ha, 0 to 100 scale, 0 no effect, 100 complete control
Procedure, shortened: as §1

[9] = system: barnyardgrass (Echinochloa crus-galli); assay: Test A postemergence; settings: postemergence; for Barnyardgrass plant response rating: 125 g ai/ha, visual injury rating on 0 to 100 scale (0 no effect, 100 complete control), approx. 10 d; for Plant response rating, Barnyardgrass: 500 g ai/ha, 0 to 100 scale, 0 no effect, 100 complete control
Procedure, shortened: as §1

[10] = system: blackgrass (Alopecurus myosuroides); assay: Test A postemergence; settings: postemergence; for Blackgrass plant response rating: 125 g ai/ha, visual injury rating on 0 to 100 scale (0 no effect, 100 complete control), approx. 10 d; for Plant response rating, Blackgrass: 500 g ai/ha, 0 to 100 scale, 0 no effect, 100 complete control
Procedure, shortened: as §1

corn (Zea mays) = assay: Test A postemergence; settings: postemergence; for Corn plant response rating: 125 g ai/ha, visual injury rating on 0 to 100 scale (0 no effect, 100 complete control), approx. 10 d; for Plant response rating, Corn: 500 g ai/ha, 0 to 100 scale, 0 no effect, 100 complete control
Procedure, shortened: as §1

[11] = system: giant foxtail (Setaria faberii); assay: Test A postemergence; settings: postemergence; for Foxtail, Giant plant response rating: 125 g ai/ha, visual injury rating on 0 to 100 scale (0 no effect, 100 complete control), approx. 10 d; for Plant response rating, Foxtail, Giant: 500 g ai/ha, 0 to 100 scale, 0 no effect, 100 complete control
Procedure, shortened: as §1

[12] = system: pigweed (Amaranthus retroflexus); assay: Test A postemergence; settings: postemergence; for Pigweed plant response rating: 125 g ai/ha, visual injury rating on 0 to 100 scale (0 no effect, 100 complete control), approx. 10 d; for Plant response rating, Pigweed: 500 g ai/ha, 0 to 100 scale, 0 no effect, 100 complete control
Procedure, shortened: as §1

[13] = system: ragweed (common ragweed, Ambrosia elatior); assay: Test A postemergence; settings: postemergence; for Ragweed plant response rating: 125 g ai/ha, visual injury rating on 0 to 100 scale (0 no effect, 100 complete control), approx. 10 d; for Plant response rating, Ragweed: 500 g ai/ha, 0 to 100 scale, 0 no effect, 100 complete control
Procedure, shortened: as §1

[14] = system: ryegrass, Italian (Italian ryegrass, Lolium multiflorum); assay: Test A postemergence; settings: postemergence; for Ryegrass, Italian plant response rating: 125 g ai/ha, visual injury rating on 0 to 100 scale (0 no effect, 100 complete control), approx. 10 d; for Plant response rating, Ryegrass, Italian: 500 g ai/ha, 0 to 100 scale, 0 no effect, 100 complete control
Procedure, shortened: as §1

[15] = system: wheat (Triticum aestivum); assay: Test A postemergence; settings: postemergence; for Wheat plant response rating: 125 g ai/ha, visual injury rating on 0 to 100 scale (0 no effect, 100 complete control), approx. 10 d; for Plant response rating, Wheat: 500 g ai/ha, 0 to 100 scale, 0 no effect, 100 complete control
Procedure, shortened: as §1

[16] = system: barnyardgrass (Echinochloa crus-galli); assay: Test B flooded paddy test; settings: Flood, 250 g ai/ha; 0 to 100 scale where 0 is no effect and 100 is complete control; 13 to 15 d
Procedure, shortened: (§2)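 2-leaf plants; pots flooded 3 cm over soil; cpd added to paddy water; depth held; greenhouse 13–15 d; visual rating vs controls, 0 = no effect, 100 = complete control.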

[17] = system: ducksalad (Heteranthera limosa); assay: Test B flooded paddy test; settings: Flood, 250 g ai/ha; 0 to 100 scale where 0 is no effect and 100 is complete control; 13 to 15 d
Procedure, shortened: as §2

rice (Oryra sativa) = assay: Test B flooded paddy test; settings: Flood, 250 g ai/ha; 0 to 100 scale where 0 is no effect and 100 is complete control; 13 to 15 d
Procedure, shortened: as §2

[18] = system: sedge, umbrella (small-flower umbrella sedge, Cyperus difformis); assay: Test B flooded paddy test; settings: Flood, 250 g ai/ha; 0 to 100 scale where 0 is no effect and 100 is complete control; 13 to 15 d
Procedure, shortened: as §2

Compound	Plant response rating, Kochia (Kochia (Kochia scoparia) [1])	Kochia plant response rating (0 to 100 scale, 0 is no effect, 100 is complete control) (Kochia (Kochia scoparia) [1])	Plant response rating, Barnyardgrass [2]	Barnyardgrass plant response rating (0 to 100 scale, 0 is no effect, 100 is complete control) [2]	Plant response rating, Foxtail, Giant [3]	Foxtail, Giant plant response rating (0 to 100 scale, 0 is no effect, 100 is complete control) [3]	Plant response rating, Pigweed [4]	Pigweed plant response rating (0 to 100 scale, 0 is no effect, 100 is complete control) [4]	Plant response rating, Ragweed [5]	Ragweed plant response rating (0 to 100 scale, 0 is no effect, 100 is complete control) [5]	Plant response rating, Ryegrass, Italian [6]	Ryegrass, Italian plant response rating (0 to 100 scale, 0 is no effect, 100 is complete control) [6]	Galium plant response rating [7]	Plant response rating, Galium [7]	Kochia plant response rating (Kochia (Kochia scoparia) [8])	Plant response rating, Kochia (Kochia (Kochia scoparia) [8])	Barnyardgrass plant response rating [9]	Plant response rating, Barnyardgrass [9]	Blackgrass plant response rating [10]	Plant response rating, Blackgrass [10]	other results
O=C1NCC(c2cccc(C#Cc3ccccc3)c2)C1C(=O)Nc1cccc(F)c1F (stereo not drawn) [Compound 451]	0	0	0	0	0	0	0	0	0	0	0	0	0	0	0	0	0	0	0	0	Corn plant response rating (corn (Zea mays)): 0; Plant response rating, Corn (corn (Zea mays)): 0; Foxtail, Giant plant response rating [11]: 0; Plant response rating, Foxtail, Giant [11]: 0; Pigweed plant response rating [12]: 0; Plant response rating, Pigweed [12]: 0; Ragweed plant response rating [13]: 0; Plant response rating, Ragweed [13]: 0; Ryegrass, Italian plant response rating [14]: 0; Plant response rating, Ryegrass, Italian [14]: 0; Wheat plant response rating [15]: 0; Plant response rating, Wheat [15]: 0; Plant response rating, Barnyardgrass [16]: 0; Plant response rating, Ducksalad [17]: 0; Plant response rating, Rice (rice (Oryra sativa)): 0; Plant response rating, Sedge, Umbrella [18]: 0
CS(=O)(=O)c1ccccc1NC(=O)C1C(=O)NCC1c1ccc(Br)cc1 (stereo not drawn) [Compound 452]	60	70	60	90	90	90	80	90	20	60	0	30	50	50	50	70	20	70	0	60	Corn plant response rating (corn (Zea mays)): 0; Plant response rating, Corn (corn (Zea mays)): 0; Foxtail, Giant plant response rating [11]: 60; Plant response rating, Foxtail, Giant [11]: 80; Pigweed plant response rating [12]: 50; Plant response rating, Pigweed [12]: 70; Ragweed plant response rating [13]: 0; Plant response rating, Ragweed [13]: 30; Ryegrass, Italian plant response rating [14]: 0; Plant response rating, Ryegrass, Italian [14]: 20; Wheat plant response rating [15]: 0; Plant response rating, Wheat [15]: 20; Plant response rating, Barnyardgrass [16]: 0; Plant response rating, Ducksalad [17]: 100; Plant response rating, Rice (rice (Oryra sativa)): 0; Plant response rating, Sedge, Umbrella [18]: 0
O=C(Nc1ccccc1F)C1C(=O)N(c2ccccc2)CC1c1cccc(C(F)(F)F)c1 (stereo not drawn) [Compound 456]	0	0	0	0	0	0	0	0	0	0	0	0	0	0	0	0	0	0	0	0	Corn plant response rating (corn (Zea mays)): 0; Plant response rating, Corn (corn (Zea mays)): 0; Foxtail, Giant plant response rating [11]: 0; Plant response rating, Foxtail, Giant [11]: 0; Pigweed plant response rating [12]: 0; Plant response rating, Pigweed [12]: 0; Ragweed plant response rating [13]: 0; Plant response rating, Ragweed [13]: 0; Ryegrass, Italian plant response rating [14]: 0; Plant response rating, Ryegrass, Italian [14]: 0; Wheat plant response rating [15]: 0; Plant response rating, Wheat [15]: 0; Plant response rating, Barnyardgrass [16]: 0; Plant response rating, Ducksalad [17]: 0; Plant response rating, Rice (rice (Oryra sativa)): 0; Plant response rating, Sedge, Umbrella [18]: 0
